# Measured values taken from publication PMC4838890, “Dynamic and flexible H3K9me3 bridging via HP1β dimerization establishes a plastic state of condensed chromatin” (Nature Communications, 2016).
# Where two headings read alike, the source gives them in different places.
# Tests used:
# H3K9me3 mononucleosome = experiment: SPR, immobilized (symmetric) H3K9me3 mononucleosome; format: binding, Xenopus laevis
# Experimental: SPR measurements were performed on a Biacore 2000 instrument (GE Healthcare, Buckinghamshire, UK) at 298 K in 10 mM triethanolamine (pH 7.5), 150 mM NaCl, 0.1 mM EDTA, 1 mM DTT, 0.005% (v/v) Tween-20. Biotinylated ligands were immobilized on streptavidin-coated sensor chips SA (GE Healthcare, Buckinghamshire, UK). Before immobilization, sensor chips were conditioned as described by the manufacturer. To obtain low surface densities (5–24 RU), 5 nM biotinylated H3 peptide was injected at a low rate of 10 μl min^−1 using varying contact times. High surface densities (>700 RU) were prepared by injecting […] peptide (10 μl min^−1) until the SA surface was saturated. Peptide-containing chips were regenerated by applying three short pulses of 0.05% (w/v) SDS followed by an injection of 1.5 M NaCl for baseline stabilization. For binding assays, hHP1β proteins were injected at […] (serial twofold dilutions) for 2 min (30 μl/min). Dissociation was recorded for up to 5 min. A streptavidin surface without ligands served as reference. In addition, blank runs were performed for double referencing. Data evaluation was performed by steady-state analysis assuming a Langmuir 1:1 binding model using BIAevaluation 4.1 and Prism 5.04 (GraphPad, CA, USA) software. Binding to the unmodified peptides was analysed with maximum binding (RUmax) set to the corresponding values obtained with the modified peptides.
# Figure S8 Hiragami-Hamada et al. […]
# Supplementary Figure 8: hHP1β binds nucleosomes as dimer. […]
# RU. Injection series are from 0.024 to 50 µM protein concentration. […]
# (f) SPR response traces of injection of hHP1β WT into Biacore cells containing biotinylated, symmetrically modified H3K9me3-mononucleosomes (i.e. both H3-tails carry H3K9me3) immobilized […]
# (also on this page, place not known: dimer . hHP1 β H3K9me3 - se nsory ( b) site -specific ( b) hHP1 β ( d) site -specific hHP1 β modifi ed H3K9me3 -mononucleosomes H3 -tails -30 -50 -8 -4 200 -10 110 -50 -10 -30 [μM] [μM] -10 190 150 -10 110 200 -10 110 μl/min μl/min μl/min -50 150 response [RU] response [RU] response [RU] response [RU] response [RU] [μM] 10 50 response [RU]40 0 0 [μM] 10 30 50 response [RU] 40 0 0 40 [μM] 10 30 50 response [RU] 140 40 0 120 0 40 response [RU] response [RU] response [RU] Kd Kd μM Kd μM 0.8 0.6 0.4 0.2 0 1 1.0 0.8 0.6 0.4 0.2 0.0 mass fraction) […]
# on a sensory chip via covalently coated streptavidin. Immobilized mononucleosome was at 950 RU.
# Injection series are from 0.024 to 50 µM protein concentration.
# (g) Blot of signal over concentration of the titration in (f) to deduce an apparent Kd value. For reference, fitting of the data to a one and two site- specific binding model is shown.
# (h) Same analysis as in (f) but with hHP1β I161A. […]
# H3K9me3 oligonucleosomes = experiment: Fluorescence correlation spectroscopy (FCS), H3K9me3 oligonucleosomes; format: biochemical, Xenopus laevis; conditions: 150 mM NaCl
# Experimental: All fluorescence measurements were performed with a pulsed custom-built mode-locked Ti:Sa-Laser and a confocal two-photon fluorescence microscope setup. Detailed description of the experimental setup and the measurement procedure are available on request. In all cases 10 nM of the acceptor labelled species, ATTO 610-labelled nucleosomal array, was incubated with 20–200 μM of recombinant hHP1β in 10 μl of 10 mM triethanolamine HCl (pH 7.5), 0.1 mM EDTA, 150 mM NaCl at 4°C. For each sample the fluorescence correlation curve, fluorescence intensity and anisotropy values were determined at 22°C. Every data point was averaged over a minimum of 15 single measurements of 10 s each. Excitation was by two-photon mode.
# The fluorescence data were analysed using the correlation function [drawing 1] , and the equation for free diffusion of particles [drawing 2] , where I(t) is the fluorescence intensity measured at time t, N the particle number, τD the diffusion time, and r0=0.25 the axis ratio of the focal region, considering the dimensions of a Gaussian beam waist.
# Supplementary Figure 3: Analysis of chromatin clustering m ediated by hHP1β.
# (a) Schematic representation of a stepwise precipitation and resolubilization experiment.
# (b) Results of stepwise precipitation and resolubilization after clustering H3K9me3-oligonucleosomes by hHP1β at different concentrations. DNA remaining in the supernatant after centrifugation was incubated with EtBr and measured by fluorescence reading. Data were normalized to amounts present in the input.
# Results of a representative experiment are shown.
# (c) Instrumental setup used for two -photon fluorescence correlation spectroscopy (FCS). The beam of a pulsed Ti:Sa-Laser is reflected into a water immersion objective (O) via a dichroic mirror (M). The fluorescence light transmitted through this dichroic mirror is split up by a second dichroic mirror. Blow- […]
# F: filter, L: lens, M: dichroic mirror, O:objective, PD:
# (d) Scheme of the strategy used for FCS measurements. DNA of oligonucleosomes was labeled at the 5’- […]
# [1] = SPR titration 0.024 to 50 µM, symmetrically modified mononucleosome at 950 RU, one site-specific binding, read-out: apparent Kd (Supplementary Fig. 8g,i)
# [2] = SPR, 150 mM NaCl, pH 7.5, 298 K, steady-state, WT value based on fitting to a one site-specific binding model, read-out: Kd (apparent dissociation constant)
Substance,Kd (H3K9me3 mononucleosome; [1]) [µM],Kd (H3K9me3 mononucleosome; [2]) [µM],"maximum hydrodynamic radius (H3K9me3 oligonucleosomes; 10 nM ATTO 610-labelled array, highest protein concentration) [nm]","EC50 (H3K9me3 oligonucleosomes; 23°C, read-out: half-maximal effect, FCS) [µM]",complex formation by clustering (FCS) (H3K9me3 oligonucleosomes)
"hHP1β WT: recombinant human heterochromatin protein 1β (GenBank NM_001127228), 185 aa",0.92,1 ± 0.2,450,3.5,
hHP1β I161A: CSD point mutant of hHP1β incapable of dimerization,4.3,5.2 ± 0.6,,,No such complex formation by clustering
